The supplement of paper PMC10627819

Columns and labels:
S. pneumoniae D39V [1] = experiment: fitness (endpoint OD595 vs no drug) (fraction); higher = more growth
Summary of the method: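 Plates with 384 wells were inoculated at OD595 0.01 using 30 µl of TSB, LB Lennox or CY, or 55 µl for S. pneumoniae. Incubation was at 37 °C, with OD595 measured every 30 min for 14 h. Fitness is the stationary-phase transition optical density over the robust mean of no-drug control wells, after first-reading background subtraction; it is capped at 1.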

B. subtilis 168 = experiment: Bliss interaction score (quartile over a dose matrix) (fitness difference); higher = more antagonism (negative = synergy)
Summary of the method: (§1)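 Fitness was defined as normalised growth: OD595 at the start of stationary phase divided by the plate's robust no-drug mean and capped at 1. Single-drug fitness was inferred from combination measurements. The Bliss score is observed fitness minus the product of the single-drug values, summarised by quartiles across technical, biological and donor/recipient replicates.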

S. pneumoniae D39V [2] = experiment: as above
Summary of the method: as §1

S. aureus DSM 20231 = experiment: as above
Summary of the method: as §1

S. aureus Newman = experiment: as above
Summary of the method: as §1
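Wherever Bliss interaction score (quartile over a dose matrix) is given: first quartile when negative (synergy) and third quartile when positive (antagonism).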

CC[C@H]1OC(=O)[C@H](C)[C@@H](O[C@H]2C[C@@](C)(OC)[C@@H](O)[C@H](C)O2)[C@H](C)[C@@H](O[C@@H]2O[C@H](C)C[C@H](N(C)C)[C@H]2O)[C@](C)(OC)C[C@@H](C)C(=O)[C@H](C)[C@@H](O)[C@]1(C)O [Clarithromycin] + Cc1cc(NS(=O)(=O)c2ccc(N)cc2)no1 [Sulfamethoxazol]
fitness, S. pneumoniae D39V [1], one replicate
Settings | first compound 0.007812 µg/mL | first compound 0.01562 µg/mL | first compound 0.03125 µg/mL | first compound 0.0625 µg/mL | first compound 0.125 µg/mL | first compound 0.25 µg/mL
partner 1 µg/mL | 0.925 | 0.809 | 0.67 | 0.699 | 0.466 | 0.168
partner 2 µg/mL | 0.917 | 0.825 | 0.665 | 0.813 | 0.664 | 0.315
partner 4 µg/mL | 0.899 | 0.805 | 0.661 | 0.613 | 0.465 | 0.17

fitness, S. pneumoniae D39V [1]
Settings | first compound 0.07 µg/mL | first compound 0.14 µg/mL | first compound 0.28 µg/mL
partner 1 µg/mL | 0.119 | 0.0685 | 0.0468
partner 2 µg/mL | 0.11 | 0.0677 | 0.0381
partner 4 µg/mL | 0.1 | 0.0655 | 0.0459

Settings | Bliss interaction score
B. subtilis 168 | 0.0784
S. aureus DSM 20231 | 0.0612
S. aureus Newman | -0.0372
S. pneumoniae D39V [2] | 0.0413

CC[C@H]1OC(=O)[C@H](C)[C@@H](O[C@H]2C[C@@](C)(OC)[C@@H](O)[C@H](C)O2)[C@H](C)[C@@H](O[C@@H]2O[C@H](C)C[C@H](N(C)C)[C@H]2O)[C@](C)(OC)C[C@@H](C)C(=O)[C@H](C)[C@@H](O)[C@]1(C)O [Clarithromycin] + Cc1ncc([N+](=O)[O-])n1CCO [Metronidazole]
fitness, S. pneumoniae D39V [1], one replicate
Settings | first compound 0.007812 µg/mL | first compound 0.01562 µg/mL | first compound 0.03125 µg/mL
partner 1.25 µg/mL | 0.927 | 0.903 | 0.669
partner 2.5 µg/mL | 0.926 | 0.891 | 0.692
partner 5 µg/mL | 0.917 | 0.856 | 0.668

fitness, S. pneumoniae D39V [1]
Settings | first compound 0.0625 µg/mL | first compound 0.07 µg/mL | first compound 0.125 µg/mL | first compound 0.14 µg/mL | first compound 0.25 µg/mL | first compound 0.28 µg/mL
partner 1.073 µg/mL | 0.729 | – | 0.542 | – | 0.337 | –
partner 1.25 µg/mL | – | 0.149 | – | 0.0801 | – | 0.0663
partner 2.145 µg/mL | 0.734 | – | 0.598 | – | 0.393 | –
partner 2.5 µg/mL | – | 0.168 | – | 0.0889 | – | 0.101
partner 4.29 µg/mL | 0.688 | – | 0.554 | – | 0.257 | –
partner 5 µg/mL | – | 0.178 | – | 0.114 | – | 0.0828

Settings | Bliss interaction score
B. subtilis 168 | 0.103
S. aureus DSM 20231 | 0.118
S. aureus Newman | -0.0393
S. pneumoniae D39V [2] | 0.106

CC[C@H]1OC(=O)[C@H](C)[C@@H](O[C@H]2C[C@@](C)(OC)[C@@H](O)[C@H](C)O2)[C@H](C)[C@@H](O[C@@H]2O[C@H](C)C[C@H](N(C)C)[C@H]2O)[C@](C)(OC)C[C@@H](C)C(=O)[C@H](C)[C@@H](O)[C@]1(C)O [Clarithromycin] + Cc1onc(-c2ccccc2)c1C(=O)N[C@@H]1C(=O)N2[C@@H]1SC(C)(C)[C@@H]2C(=O)O [Oxacillin]
fitness, S. pneumoniae D39V [1], one replicate
Settings | first compound 0.007812 µg/mL | first compound 0.01562 µg/mL | first compound 0.03125 µg/mL
partner 0.01 µg/mL | 0.9 | 0.856 | 0.678
partner 0.02 µg/mL | 0.911 | 0.833 | 0.646
partner 0.04 µg/mL | 0.414 | 0.48 | 0.418

fitness, S. pneumoniae D39V [1]
Settings | first compound 0.0625 µg/mL | first compound 0.07 µg/mL | first compound 0.125 µg/mL | first compound 0.14 µg/mL | first compound 0.25 µg/mL | first compound 0.28 µg/mL
partner 0.005 µg/mL | – | 0.179 | – | 0.128 | – | 0.119
partner 0.01 µg/mL | 0.564 | 0.185 | – | 0.136 | 0.165 | 0.0928
partner 0.02 µg/mL | 0.54 | 0.182 | – | 0.117 | 0.158 | 0.107
partner 0.04 µg/mL | – | – | 0.254 | – | 0.0887 | –

Settings | Bliss interaction score
B. subtilis 168 | 0.0227
S. aureus DSM 20231 | 0.0328
S. aureus Newman | -0.0384
S. pneumoniae D39V [2] | 0.0844

CC[C@H]1OC(=O)[C@H](C)[C@@H](O[C@H]2C[C@@](C)(OC)[C@@H](O)[C@H](C)O2)[C@H](C)[C@@H](O[C@@H]2O[C@H](C)C[C@H](N(C)C)[C@H]2O)[C@](C)(OC)C[C@@H](C)C(=O)[C@H](C)[C@@H](O)[C@]1(C)O [Clarithromycin] + Clc1ccc(COC(Cn2ccnc2)c2ccc(Cl)cc2Cl)c(Cl)c1 [Miconazole]
fitness, S. pneumoniae D39V [1], one replicate
Settings | first compound 0.007812 µg/mL | first compound 0.01562 µg/mL | first compound 0.03125 µg/mL
partner 1.25 µg/mL | 0.924 | 0.848 | 0.664
partner 2.5 µg/mL | 0.9 | 0.855 | 0.66
partner 5 µg/mL | 0.869 | 0.847 | 0.556

S. pneumoniae D39V [1]
Settings | fitness
first compound 0.0625 µg/mL, partner 1.073 µg/mL | 0.747
first compound 0.0625 µg/mL, partner 2.145 µg/mL | 0.638
first compound 0.0625 µg/mL, partner 4.29 µg/mL | 0.635
first compound 0.07 µg/mL, partner 1.25 µg/mL | 0.167
first compound 0.07 µg/mL, partner 2.5 µg/mL | 0.185
first compound 0.07 µg/mL, partner 5 µg/mL | 0.107
first compound 0.125 µg/mL, partner 4.29 µg/mL | 0.448
first compound 0.14 µg/mL, partner 1.25 µg/mL | 0.117
first compound 0.14 µg/mL, partner 2.5 µg/mL | 0.151
first compound 0.14 µg/mL, partner 5 µg/mL | 0.0925
first compound 0.25 µg/mL, partner 1.073 µg/mL | 0.0979
first compound 0.25 µg/mL, partner 2.145 µg/mL | 0.0742
first compound 0.25 µg/mL, partner 4.29 µg/mL | 0.218
first compound 0.28 µg/mL, partner 1.25 µg/mL | 0.0568
first compound 0.28 µg/mL, partner 2.5 µg/mL | 0.122
first compound 0.28 µg/mL, partner 5 µg/mL | 0.0835

Settings | Bliss interaction score
B. subtilis 168 | 0.0897
S. aureus DSM 20231 | 0.0854
S. aureus Newman | 0.0558
S. pneumoniae D39V [2] | 0.0979
